# Values joined by “and” are separate entries in the source; they are usually repeats but may differ in a detail not shown here. Identical values can stand only once. Toxic doses and inconclusive results are not listed.
# System: L1210 leukemia ip in BDF1 mice, survival T/C
# Test: NCI In Vivo Anticancer Drug Screen. Data for tumor model L1210 Leukemia (intraperitoneal) in B6D2F1 (BDF1) mice
# Details: endpoint: mean survival time, higher = longer survival
# Procedure, shortened: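 Mice bearing the transplanted tumor received compound or vehicle. Survival of the treated group was divided by that of the vehicle-treated control group to give the ratio.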
# [1] = dose: 100.0 mg/kg/injection, schedule: Q01DX009 (ip), vehicle: Klucel (hydroxypropylcellulose) (HPC)
# [2] = dose: 200.0 mg/kg/injection, schedule: Q01DX009 (ip), vehicle: Klucel (hydroxypropylcellulose) (HPC)
# [3] = dose: 400.0 mg/kg/injection, schedule: Q01DX009 (ip), vehicle: Klucel (hydroxypropylcellulose) (HPC)
# [4] = dose: 50.0 mg/kg/injection, schedule: Q01DX009 (ip), vehicle: saline with Tween-80
# [5] = dose: 400.0 mg/kg/injection, schedule: Q01DX001 (ip), vehicle: other
# [6] = dose: 100.0 mg/kg/injection, schedule: Q04DX002 (ip), vehicle: Klucel (hydroxypropylcellulose) (HPC)
# [7] = dose: 200.0 mg/kg/injection, schedule: Q04DX002 (ip), vehicle: Klucel (hydroxypropylcellulose) (HPC)
# [8] = dose: 400.0 mg/kg/injection, schedule: Q04DX002 (ip), vehicle: Klucel (hydroxypropylcellulose) (HPC)
# [9] = dose: 100.0 mg/kg/injection, schedule: Q04DX003 (ip), vehicle: Klucel (hydroxypropylcellulose) (HPC)
# [10] = dose: 200.0 mg/kg/injection, schedule: Q04DX003 (ip), vehicle: Klucel (hydroxypropylcellulose) (HPC)
# [11] = dose: 400.0 mg/kg/injection, schedule: Q04DX003 (ip), vehicle: Klucel (hydroxypropylcellulose) (HPC)
# [12] = dose: 100.0 mg/kg/injection, schedule: Q01DX009 (ip), vehicle: saline with Tween-80
# [13] = dose: 200.0 mg/kg/injection, schedule: Q01DX009 (ip), vehicle: saline with Tween-80
# [14] = dose: 400.0 mg/kg/injection, schedule: Q01DX009 (ip), vehicle: saline with Tween-80
# [15] = dose: 100.0 mg/kg/injection, schedule: Q01DX001 (ip), vehicle: saline
# [16] = dose: 200.0 mg/kg/injection, schedule: Q01DX001 (ip), vehicle: saline
# [17] = dose: 400.0 mg/kg/injection, schedule: Q01DX001 (ip), vehicle: saline
# [18] = dose: 100.0 mg/kg/injection, schedule: Q01DX001 (ip), vehicle: carboxymethylcellulose (CMC)
# [19] = dose: 200.0 mg/kg/injection, schedule: Q01DX001 (ip), vehicle: carboxymethylcellulose (CMC)
# [20] = dose: 400.0 mg/kg/injection, schedule: Q01DX001 (ip), vehicle: carboxymethylcellulose (CMC)
compound,measurement,setting,value
CC(C)(C)NC(=O)Nc1cccc(C(=O)O)c1,T/C,[1],97 % of control
same,T/C,[2],109 % of control
same,T/C,[3],101 % of control
CC(C)=CCC/C(C)=C\C1N(C)CCCN1C,T/C,"dose: 25.0 mg/kg/injection, schedule: Q01DX009 (ip), vehicle: saline with Tween-80",92 % of control
same,T/C,"dose: 25.0 mg/kg/injection, schedule: Q04DX003 (ip), vehicle: saline with Tween-80",98 % of control
same,T/C,[4],88 % of control
same,T/C,"dose: 50.0 mg/kg/injection, schedule: Q04DX003 (ip), vehicle: saline with Tween-80",92 % of control
CCCc1[nH]nc(C(=O)OC)c1N=NN(C)C,T/C,"dose: 173.0 mg/kg/injection, schedule: Q01DX001 (ip), vehicle: other",110 % of control
same,T/C,"dose: 266.0 mg/kg/injection, schedule: Q01DX001 (ip), vehicle: other",112 % of control
same,T/C,[5],115 % of control
same,T/C,"dose: 600.0 mg/kg/injection, schedule: Q01DX001 (ip), vehicle: other",123 % of control
CNCCCNCC(Cc1ccccc1)c1ccccc1 (stereo not drawn),T/C,"dose: 100.0 mg/kg/injection, schedule: Q04DX002 (ip), vehicle: saline",86 % of control
CC1(C)CN=C(c2ccc([N+](=O)[O-])cc2)O1,T/C,"dose: 75.0 mg/kg/injection, schedule: Q04DX003 (ip), vehicle: Klucel (hydroxypropylcellulose) (HPC)",108 % of control
same,T/C,"dose: 150.0 mg/kg/injection, schedule: Q04DX003 (ip), vehicle: Klucel (hydroxypropylcellulose) (HPC)",94 % of control
same,T/C,"dose: 300.0 mg/kg/injection, schedule: Q04DX003 (ip), vehicle: Klucel (hydroxypropylcellulose) (HPC)",89 % of control
CC(=O)Nc1cccc(Cl)c1F,T/C,[6],100 % of control
same,T/C,[7],93 % of control
same,T/C,[8],107 % of control
CCOc1ccc(N2CSC(=S)N(c3ccc(OCC)cc3)C2)cc1,T/C,[1],96 % of control
same,T/C,[9],92 % of control
same,T/C,[2],99 % of control
same,T/C,[10],92 % of control
same,T/C,[11],92 % of control
CC(=O)COc1ccccc1,T/C,[1],108 % of control
same,T/C,[9],100 % of control
same,T/C,[2],110 % of control
same,T/C,[10],97 % of control
same,T/C,[3],108 % of control
same,T/C,[11],95 % of control
C#CCOc1ccccc1O,T/C,"dose: 100.0 mg/kg/injection, schedule: Q01DX009 (ip), vehicle: acetone",94 % of control and 91 % of control
same,T/C,"dose: 200.0 mg/kg/injection, schedule: Q01DX009 (ip), vehicle: acetone",94 % of control
same,T/C,"dose: 400.0 mg/kg/injection, schedule: Q01DX009 (ip), vehicle: acetone",100 % of control and 92 % of control
O=C(N/N=C/Cc1ccccc1)C(=O)N/N=C/Cc1ccccc1,T/C,[4],102 % of control
same,T/C,[12],91 % of control
C/C=C\c1ccc(OCCOC(=O)Nc2cccc(C(F)(F)F)c2)c(OC)c1,T/C,[4],102 % of control
same,T/C,[12],98 % of control and 91 % of control
same,T/C,[13],95 % of control and 90 % of control
same,T/C,[14],98 % of control
COCC1OC(OC)C(NC(C)=O)C(OC)C1OC (stereo not drawn),T/C,[15],101 % of control
same,T/C,[16],101 % of control
same,T/C,[17],96 % of control
Cn1ncc2c(N(N)CCO)nc(-c3ccc([N+](=O)[O-])o3)nc21,T/C,"dose: 50.0 mg/kg/injection, schedule: Q01DX001 (ip), vehicle: saline",108 % of control
same,T/C,[15],108 % of control
same,T/C,[16],104 % of control
same,T/C,[17],117 % of control
Cc1cc(C)c2[nH]c(=O)c(Br)c(C)c2c1,T/C,"dose: 100.0 mg/kg/injection, schedule: Q01DX001 (ip), vehicle: other",93 % of control
same,T/C,"dose: 200.0 mg/kg/injection, schedule: Q01DX001 (ip), vehicle: other",98 % of control
same,T/C,[5],106 % of control
Cc1ccc(S(=O)(=O)N/N=C2/CC(C)(C)CC(=O)C2(C)C)cc1,T/C,[6],102 % of control
same,T/C,[7],102 % of control
same,T/C,[8],102 % of control
CCOC(=O)NP(=O)(NNc1ccccc1)NNc1ccccc1,T/C,"dose: 50.0 mg/kg/injection, schedule: Q01DX001 (ip), vehicle: carboxymethylcellulose (CMC)",104 % of control
same,T/C,[18],89 % of control
same,T/C,[19],95 % of control
same,T/C,[20],89 % of control
CC(=O)Nc1cc(Cl)c(Nc2cc(S(=O)(=O)O)c(N)c3c2C(=O)c2ccccc2C3=O)c(Cl)c1,T/C,"dose: 75.0 mg/kg/injection, schedule: Q01DX001 (ip), vehicle: saline",96 % of control
same,T/C,"dose: 150.0 mg/kg/injection, schedule: Q01DX001 (ip), vehicle: saline",88 % of control
O=C(C(F)(F)F)C(F)(F)F,T/C,"dose: 6.25 mg/kg/injection, schedule: Q01DX009 (ip), vehicle: saline",95 % of control
same,T/C,"dose: 12.5 mg/kg/injection, schedule: Q01DX009 (ip), vehicle: saline",98 % of control
same,T/C,"dose: 25.0 mg/kg/injection, schedule: Q01DX009 (ip), vehicle: saline",114 % of control
same,T/C,"dose: 100.0 mg/kg/injection, schedule: Q01DX009 (ip), vehicle: saline",88 % of control
CCN(CC)CCCNC(c1ccccc1)C(Cl)(Cl)Cl (stereo not drawn),T/C,[15],96 % of control
CONCC(=O)c1ccc(SC)cc1,T/C,[15],106 % of control
same,T/C,[16],97 % of control
same,T/C,[17],100 % of control
COc1ccc(N=Cc2ccccc2O)cc1,T/C,"dose: 100.0 mg/kg/injection, schedule: Q04DX003 (ip), vehicle: other",100 % of control
same,T/C,"dose: 200.0 mg/kg/injection, schedule: Q04DX003 (ip), vehicle: other",96 % of control
same,T/C,"dose: 400.0 mg/kg/injection, schedule: Q04DX003 (ip), vehicle: other",98 % of control
CC(C)Cn1cnc2c(=S)nc(N)[nH]c21,T/C,"dose: 6.0 mg/kg/injection, schedule: Q01DX015 (ip), vehicle: other",107 % of control
same,T/C,"dose: 9.0 mg/kg/injection, schedule: Q01DX015 (ip), vehicle: carboxymethylcellulose (CMC)",103 % of control
same,T/C,"dose: 9.0 mg/kg/injection, schedule: Q01DX015 (ip), vehicle: other",111 % of control
same,T/C,"dose: 13.0 mg/kg/injection, schedule: Q01DX015 (ip), vehicle: carboxymethylcellulose (CMC)",104 % of control
same,T/C,"dose: 20.0 mg/kg/injection, schedule: Q01DX015 (ip), vehicle: carboxymethylcellulose (CMC)",109 % of control
same,T/C,"dose: 21.0 mg/kg/injection, schedule: Q01DX015 (ip), vehicle: other",150 % of control
same,T/C,"dose: 22.0 mg/kg/injection, schedule: Q01DX001 (ip), vehicle: carboxymethylcellulose (CMC)",114 % of control
same,T/C,"dose: 44.0 mg/kg/injection, schedule: Q01DX015 (ip), vehicle: carboxymethylcellulose (CMC)",109 % of control
same,T/C,"dose: 60.0 mg/kg/injection, schedule: Q01DX015 (ip), vehicle: other",124 % of control
same,T/C,"dose: 66.0 mg/kg/injection, schedule: Q01DX015 (ip), vehicle: carboxymethylcellulose (CMC)",98 % of control
same,T/C,[18],155 % of control
same,T/C,"dose: 100.0 mg/kg/injection, schedule: Q01DX015 (ip), vehicle: carboxymethylcellulose (CMC)",98 % of control
same,T/C,"dose: 100.0 mg/kg/injection, schedule: Q01DX015 (ip), vehicle: other",121 % of control
same,T/C,[19],153 % of control and 161 % of control
same,T/C,[20],112 % of control
CSc1ccc(OC(C)=O)cc1,T/C,[4],94 % of control
same,T/C,[12],91 % of control
same,T/C,[13],102 % of control
CC(=O)Oc1ccccc1C1OC(=O)c2ccccc2N1C(C)=O (stereo not drawn),T/C,"dose: 100.0 mg/kg/injection, schedule: Q01DX001 (ip), vehicle: saline with Tween-80",106 % of control
same,T/C,[12],101 % of control and 103 % of control
same,T/C,"dose: 100.0 mg/kg/injection, schedule: Q04DX002 (ip), vehicle: saline with Tween-80",105 % of control and 87 % of control
same,T/C,"dose: 200.0 mg/kg/injection, schedule: Q01DX001 (ip), vehicle: saline with Tween-80",104 % of control
same,T/C,[13],93 % of control and 102 % of control
same,T/C,"dose: 200.0 mg/kg/injection, schedule: Q04DX002 (ip), vehicle: saline with Tween-80",96 % of control and 97 % of control
same,T/C,"dose: 400.0 mg/kg/injection, schedule: Q01DX001 (ip), vehicle: saline with Tween-80",103 % of control
same,T/C,[14],93 % of control
same,T/C,"dose: 400.0 mg/kg/injection, schedule: Q04DX002 (ip), vehicle: saline with Tween-80",94 % of control and 105 % of control
CC[C@H](CC[C@@H](C)C1CC[C@H]2[C@@H]3CCC4=CC(=O)CC[C@]4(C)[C@H]3CC[C@]12C)C(C)C (stereo partly drawn),T/C,[15],98 % of control
same,T/C,[16],95 % of control
same,T/C,[17],97 % of control

# Source: PubChem BioAssay AID248 (DTP/NCI, 2004)
